This is an account of results in article PMC7472781, “Inherited and Acquired Determinants of Hepatic CYP3A Activity in Humans” (Frontiers in Genetics, 2020).

Each structure is given as a SMILES string. Several values for one entry are separate records, joined by “and”; a condition that tells them apart may be missing. Equal entries are not always repeated. Marks after values point to notes of the source that are not given here.

Series [1] relates to CYP3A. The series is described as follows: clinical. The note with it: for AUC: 0.2 mg midazolam i.v., zero to infinity; for AUC / Ratio 1-OH-midazolam/midazolam (AUC): value (range). The protocol: Midazolam was administered as a 2 min intravenous infusion with a total dose of 0.2 mg. The phenotyping test with midazolam was performed on three different occasions with a time interval of at least 1 week and maximally 3 months.
Pharmacokinetic parameters were estimated by non-compartmental analyses using the WinNonlin software (Pharsight Corporation, Mountain View, United States). The AUC from zero to infinity (AUC), was calculated by the linear/log trapezoidal rule and using the terminal elimination rate constant (lambda z). […] Total plasma clearance (Cl) after administration of midazolam was calculated as the ratio dose over AUC. Time (tmax) and amount of maximum plasma concentration (Cmax) were given as measured and the terminal half-life (t1/2) was calculated as t1/2 = ln(2)/lambda z.

Series [2] deals with CYP3A. The series is described as follows: Within- and between-subject variance and genetic component (Kalow) of the 4 CYP3A biomarkers, three occasions. The note with it: for Genetic component: from intra- and inter-individual variation, independent of twin status, AUC, plasma concentration or 24-h urine Ae. The protocol:
(§1) Predefined primary endpoint was midazolam AUC. All concentrations and pharmacokinetic parameters were determined on three independent occasions to compare intra- versus interindividual variation. […] In structural equation modeling of heritability and in the other multifactorial analyses the individual means from the measurements or parameters obtained on the three occasions were used. Using structural equation analysis, variation was separated into additive genetic (A), common environmental (C), and unique environmental (E) effects. The heritability is the proportion of the variance resulting from the genetic effect (A). In order to investigate the genetic, common environmental, and unique environmental effects of the different traits taken into account, the possible correlation between traits were fitted in multivariate ACE, AE, and CE biometrical models using the mcglm package for multivariate regression analysis in R. As an exploratory analysis, we computed the correlation between MZ and DZ twins based on an unstructured (equal mean and variance for MZ and DZ twins) model. In all models, the mean structure for each trait was specified as a linear function of the covariates age and sex.

The test system of series [3] is CYP3A. Kind of series: Twin correlations and structural equation modeling (ACE, AE, CE) of heritability of the CYP3A biomarkers. The note with it: for rdz (correlation between DZ twins) / rmz (correlation between MZ twins): unstructured model. The protocol: as §1
The subject of series [4] is CYP3A. The series is described as follows: Multifactorial analysis of genetic and environmental effects on the CYP3A probe drugs and biomarkers. The note with it: in vivo. On the procedure: DNA was isolated from whole venous blood by automated solid phase extraction with the EZ1^TM DNA Blood 350 μl Kit using the Bio-robot EZ1^TM (both Qiagen, Hilden, Germany). The CYP3A4^∗1b and ^∗22 alleles as well as the CYP3A5^∗1/^∗3 polymorphism were genotyped by DNA sequencing using fluorescence-labeled dideoxynucleotides and detection via Gene Mapper v3.7 Software® (Applied Biosystems®, Foster City, United States). Zygosity was assessed by analyzing variants in 23 polymorphic genes. Monozygosity was concluded when there were no differences regarding the polymorphisms in both siblings of one twin pair.
as §1

In series [5] the test system is CYP3A. The series is described as follows: Endogenous CYP3A biomarker in plasma: cholesterol and 4ß-OH-cholesterol (GC-MS, baseline blood samples). The note with it: for Plasma concentration / Ratio (cholesterol): value (range); for Ratio (cholesterol): plasma. The protocol:
Briefly, 10 μl of plasma were spiked with 10 μg of cholesterol-d5 as internal standard. After saponification with 0.5 ml of 1 M NaOH in 90% ethanol at 70°C for 1 h, 250 μl of water were added and the samples extracted with 2 ml of n-hexane. An aliquot of 50 μl of the extract was evaporated to dryness and derivatized with 20 μl of N,O-bis(trimethylsilyl)trifluoroacetamide (BSTFA) for 30 min at room temperature.
Briefly, 1 ml of plasma was spiked with 10 μg of BHT and 50 ng of the internal standard 4ß-hydroxycholesterol-d4 and saponified with 2.5 ml of 1 M NaOH in 90% ethanol at 70°C for 1 h under argon and then extracted with 1 ml of water and 5 ml of chloroform. The chloroform phase was evaporated to dryness in a stream of nitrogen and the residue dissolved in 1 ml of toluene. […] The cartridges were washed with 1 ml of hexane and 10 ml of 2-propanol in hexane (0.5% v/v) and then eluted with 2 ml of 2-propanol in hexane (30% v/v). The eluate was evaporated to dryness in a stream of nitrogen and derivatized with 20 μl of BSTFA for 30 min at room temperature. GC was performed on a J&W DB-5MS column (25 m, 0.2 mm i.d., 0.33 μm film thickness; Agilent) in the splitless mode. For the analysis of cholesterol, the GC oven program started at 150°C and was held for 1 min. […] For the analysis of 4ß-hydroxycholesterol the GC oven program startet at 150°C and was held for 1 min. Temperature was increased with 10°C/min to 250°C, then with 30°C/min to 300°C.

For series [6] the following is noted: other studies; ref Diczfalusy et al., 2008; cited from earlier work.
For series [7], the system named is CYP3A. The series is described as follows: Endogenous CYP3A biomarker in 24-h urine: cortisol and 6ß-OH-cortisol (LC-MS-MS). The note with it: value (range); for Amount in urine: 24 h urine; for Ratio (cortisol): urine.
Method: Cholesterol and 4ß-OH cholesterol were measured in the baseline blood samples before drug administration. All samples were centrifuged for 10 min (4000 rpm) at 4°C and the plasma was stored at −20°C.
Calibration samples for cholesterol were prepared in isooctane with 10% 2-propanol in the concentration range from 1 to 30 μg. Calibration samples for 4ß-hydroxycholesterol were prepared in isooctane with 0.8% 2-propanol from 5 to 100 ng. […] Calibration samples were worked up as the samples, and analyzed together with the unknown samples. […] The concentration in unknown samples was obtained from the regression line.
The subject of series [8] is CYP3A. The note with it: cited from earlier work; for CYP3A activity increased: in vivo.

For the molecule `OCc1ncc2n1-c1ccc(Cl)cc1C(c1ccccc1F)=NC2` [1-OH-midazolam, 1′-hydroxymidazolam], in the series with CYP3A [1] (DZ twins), the AUC is 73.31 (30.95 – 322.8) μg * min/L and the “Ratio 1-OH-midazolam/midazolam (AUC)” value is recorded as 0.17 (0.07 – 0.54). In the series with CYP3A [1] (MZ twins), the AUC is recorded as 66.88 (33.75 – 195.6) μg * min/L and the “Ratio 1-OH-midazolam/midazolam (AUC)” value is on record as 0.15 (0.09 – 0.61). In the series on CYP3A [1] (all subjects), the “AUC, inter-individual range” value is 30.95 – 322.8 μg∗min/L and the “Inter-individual variation in AUC” value worked out at 10.4 fold. In addition, the “AUC, mean” value in the series with CYP3A [1] (all subjects, three occasions) came out at 86.2 µg·min/L. For the same molecule, the “Intra-individual (between-days) mean coefficient of variation” value with CYP3A [1] (three occasions) was 12.3%. For the same molecule, the Genetic component in the series with CYP3A [2] was 0.93 and 0.931. The “Variation that may be due to genetic factors (from genetic component)” value with CYP3A [2] (human, in vivo) is “up to 93%”. Moreover, in the series with CYP3A [3] (ACE model), the “C^2 (common environmental effect)” value was 0.21 (0.23), the “H^2 (heritability)” value is reported as 0.73 (0.23)* and the “Variation due to additive genetic (inherited) effects” value amounted to 73%. Besides, in the series on CYP3A [3] (AE model), the “H^2 (heritability)” value is reported as 0.94 (0.01)*. Also, the “C^2 (common environmental effect)” value in the series on CYP3A [3] (CE model) was 0.78 (0.04)*. In addition, in the series with CYP3A [3], the “rdz (correlation between DZ twins)” value was 0.59 (0.11)* and the “rmz (correlation between MZ twins)” value is listed as 0.94 (0.01)*. Moreover, in the series on CYP3A [4], the “Coefficient, CYP3A4*22” value is recorded as −12.53; the “Coefficient, CYP3A5*3” value is recorded as 29.27; the “Coefficient, age” value is reported as −1.78; the “Coefficient, lean body weight” value is recorded as −1.74. Also, in the series with CYP3A [4], the “Coefficient, sex” value was 11.79; the “Coefficient, smoking status” value stood at 1.46; the “Coefficient, oral contraceptives” value is given as −31.33.

For `CC(C)CCC[C@@H](C)[C@H]1CC[C@H]2[C@@H]3CC=C4[C@@H](O)[C@@H](O)CC[C@]4(C)[C@H]3CC[C@]12C` [4ß-OH-cholesterol, 4ß-hydroxycholesterol], the Plasma concentration with CYP3A [5] (DZ twins) was 23.07 (15.12 – 46.77) ng/ml. Also, the Plasma concentration with CYP3A [5] (MZ twins) was 24.56 (12.59 – 62.96) ng/ml. Also, the “Plasma concentration, mean” value in the series with CYP3A [5] (all subjects, three occasions) turned out to be 25.9 ng/mL. In addition, the Median plasma level in the series on CYP3A [5] (heterozygous carriers of active CYP3A5*1) worked out at 30.69 ng/mL. In the series on CYP3A [5] (homozygous carriers of CYP3A5*3), this molecule yielded a Median plasma level of 23.01 ng/mL. In addition, the Genetic component in the series on CYP3A [2] came to 0.812. Besides, in the series with CYP3A [2] (human, in vivo), the “Variance between subjects (Varb) of plasma concentration” value came to 86.5 ng/mL. Also, in the series on CYP3A [2] (three occasions), the “Variance within subjects (Varw) of plasma concentration” value came out at 14.3 ng/mL. For the same molecule, in the series on CYP3A [3] (ACE model), the “C^2 (common environmental effect)” value is 0.22 (0.26), the “H^2 (heritability)” value is given as 0.56 (0.26)* and the “Variation due to additive genetic (inherited) effects” value is given as 56%. In addition, the “H^2 (heritability)” value with CYP3A [3] (AE model) is reported as 0.79 (0.04)*. Also, the “C^2 (common environmental effect)” value in the series with CYP3A [3] (CE model) is recorded as 0.74 (0.04)*. Besides, in the series on CYP3A [3], the “rdz (correlation between DZ twins)” value is 0.53 (0.12)* and the “rmz (correlation between MZ twins)” value is 0.79 (0.04)*. Also, in the series with CYP3A [4] (human), the “Coefficient, CYP3A4*22” value is recorded as −8.21; the “Coefficient, CYP3A5*3” value is given as −6.30; the “Coefficient, age” value worked out at 0.16; the “Coefficient, sex” value is −3.32. In addition, in the series with CYP3A [4] (human, 0.2 mg), the “Coefficient, lean body weight” value is reported as −0.20; the “Coefficient, smoking status” value came out at 3.28; the “Coefficient, oral contraceptives” value was −2.57. In addition, the half-life (commonly how long it takes for the measured level to halve) in series [6] is not below 17 days.

`CC(C)CCC[C@@H](C)[C@H]1CC[C@H]2[C@@H]3CC=C4C[C@@H](O)CC[C@]4(C)[C@H]3CC[C@]12C` [Cholesterol, cholesterol]: in the series with CYP3A [5] (DZ twins), the “Ratio (cholesterol)” value was 0.17 (0.12 – 0.25) and the Plasma concentration was 1.38 (0.94 – 2.12) mg/ml. Further, in the series with CYP3A [5] (MZ twins), the “Ratio (cholesterol)” value was 0.17 (0.01 – 0.35) and the Plasma concentration was 1.39 (0.86 – 1.99) mg/ml.

As for `C[C@]12CCC(=O)C=C1CC[C@@H]1[C@@H]2[C@@H](O)C[C@@]2(C)[C@H]1CC[C@]2(O)C(=O)CO` [Cortisol, cortisol], in the series with CYP3A [7] (DZ twins), the Amount in urine was 32.14 (11.10 – 90.00) μg and the “Ratio (cortisol)” value is listed as 6.75 (3.38 – 18.22). In addition, in the series on CYP3A [7] (MZ twins), the Amount in urine is 35.85 (10.05 – 142.80) μg and the “Ratio (cortisol)” value was 6.29 (3.09 – 14.65).

For the molecule `NC(=O)N1c2ccccc2C=Cc2ccccc21` [carbamazepin], the CYP3A activity increased result with CYP3A [8] is listed as “up to 10 fold”.

Take `CCC(C)n1ncn(-c2ccc(N3CCN(c4ccc(OCC5COC(Cn6cncn6)(c6ccc(Cl)cc6Cl)O5)cc4)CC3)cc2)c1=O` (stereo not shown) [itraconazole]: in the series on CYP3A [8] (strong inhibitors, ref Kim et al., 2006, Greenblatt and Harmatz, 2015), the “CYP3A activity reduced to” value is reported as 10%.

Take `CCC1(c2ccccc2)C(=O)NC(=O)NC1=O` [phenobarbital]: the CYP3A activity increased result with CYP3A [8] was “up to 10 fold”.
